# Values of other authors in patent US20190177284A1, “TETRAZOLYL-CONTAINING CYCLOPROPANECARBOXAMIDES” (Bayer Pharma Aktiengesellschaft, priority 2017, published 2019).
# Columns and labels:
# [1] = due to metabolic liability; cited from earlier work
# [2] = cited from earlier work
# [3] = cited from earlier work; remark: listed apart in the source
# [4] = cited from earlier work; remark: listed apart in the source
SMILES,pharmacokinetic profile [1],pharmacokinetic profile in rat [2],human metabolic stability [3],aqueous solubility [4]
C[C@@H](NC(=O)C1(NC(=O)C(F)(F)F)CC1)c1ccc(-c2cccc(Cl)c2C(=O)O)cc1F [MK-0686],suboptimal,–,–,–
C[C@@H]1CC[C@H](C)N1C(=O)c1ccc([C@@H](C)NC(=O)C2(NC(=O)c3cc(F)cc(C(F)(F)F)c3)CC2)c(F)c1,–,reasonable,poor,reasonable
